For orientation: fraction unbound means the share of the substance not bound to proteins or other matrix. One may read the pEC50 as the EC50 on a negative log10 scale, so that one unit is a factor of ten.

Each structure is given as a SMILES string. pEC50: −log10 of the molar value. Activity calls are given as the source filed them. No cut-off for these calls is given here. A value given as a limit tells only on which side of the number the result lay.

The test system of data set [1] is Rattus norvegicus. Put plainly: Positive […] activity in anesthetized Lewis rat model of myocardial infarction assessed as plasma concentration for maximal pharmacodynamic effect at 1 mg/kg/min, iv administered as continuous infusion for 20 mins. The format is functional.
Data set [2] relates to Rattus norvegicus. Kind of data set: Positive […] activity in anesthetized Lewis rat model of myocardial infarction assessed as increase in ejection fraction at 1 mg/kg/min, iv administered as continuous infusion for 20 mins. The format is functional.
In data set [3] the test system is Rattus norvegicus. Kind of data set: Positive […] activity in anesthetized Lewis rat model of myocardial infarction assessed as increase in ejection fraction at 30 ug/kg/min, iv administered as infusion for 30 mins. The format is functional. The settings on record: dose 30 µg/kg/min, 0.5 h.
Data set [4] can be described thus: Stability in rat Kidney S9 fraction assessed as compound remaining at 4 hrs. The conditions noted are these: read-out: Stabilty. The format is ADME, subcellular.
Data set [5] in a line: Agonist activity at APJ receptor in anesthetized Lewis rat model of myocardial infarction assessed as target coverage at 10 ug/kg/min iv administered as continuous infusion for 30 mins relative to control. The format is functional. The conditions noted are these: dose 10 µg/kg/min, 0.5 h.
The nature of data set [6]: Unbound fraction in anesthetized Lewis rat myocardial infarction model plasma assessed as free plasma concentration at 10 ug/kg/min, iv administered as continuous infusion for 30 mins. The format is ADME, organism-based. The settings on record: in vivo, 0.01 mg/kg, 0.5 h, dose 10 µg/kg/min.
Data set [7] can be described thus: Unbound fraction in anesthetized Lewis rat myocardial infarction model plasma assessed as free plasma concentration at 30 ug/kg/min, iv administered as continuous infusion for 30 mins. The format is ADME, organism-based. The conditions noted are these: in vivo, 0.03 mg/kg, 0.5 h, dose 30 µg/kg/min.
A short description of data set [8]: Agonist activity at APJ receptor in anesthetized Lewis rat model of myocardial infarction assessed as target coverage at 30 ug/kg/min iv administered as continuous infusion for 30 mins relative to control. The format is functional. The settings on record: dose 30 µg/kg/min, 0.5 h.
The nature of data set [9]: Plasma protein binding in rat assessed as unbound fraction by LC-MS/MS analysis. The format is ADME, cell-free.
Data set [10] deals with Rattus norvegicus. Kind of data set: Agonist activity at APJ receptor in anesthetized Lewis rat model of myocardial infarction assessed as target coverage at 3.7 ug/kg/min, iv administered as continuous infusion for 30 mins. The format is functional, organism-based. The conditions noted are these: dose 3.7 µg/kg/min.
Data set [11] is described as follows: Stability in rat liver S9 fraction assessed as compound remaining at 4 hrs. The format is ADME, subcellular. The conditions noted are these: read-out: Stabilty.
The subject of data set [12] is Rattus norvegicus. Kind of data set: Positive […] activity in anesthetized Lewis rat model of myocardial infarction assessed as increase in ejection fraction at 10 ug/kg/min, iv administered as continuous infusion for 30 mins. The format is functional. The settings on record: dose 10 µg/kg/min, 0.5 h.
Data set [13] can be described thus: Unbound fraction in anesthetized Lewis rat myocardial infarction model plasma assessed as free plasma concentration at 3.7 ug/kg/min, iv administered as continuous infusion for 30 mins. The format is ADME, organism-based. The settings on record: in vivo, 0.0037 mg/kg, 0.5 h, dose 3.7 µg/kg/min.
The next data set addresses T1, Apelin receptor (Rattus norvegicus, UniProt Q9JHG3).
T1 sequence (Q9JHG3 whole entry): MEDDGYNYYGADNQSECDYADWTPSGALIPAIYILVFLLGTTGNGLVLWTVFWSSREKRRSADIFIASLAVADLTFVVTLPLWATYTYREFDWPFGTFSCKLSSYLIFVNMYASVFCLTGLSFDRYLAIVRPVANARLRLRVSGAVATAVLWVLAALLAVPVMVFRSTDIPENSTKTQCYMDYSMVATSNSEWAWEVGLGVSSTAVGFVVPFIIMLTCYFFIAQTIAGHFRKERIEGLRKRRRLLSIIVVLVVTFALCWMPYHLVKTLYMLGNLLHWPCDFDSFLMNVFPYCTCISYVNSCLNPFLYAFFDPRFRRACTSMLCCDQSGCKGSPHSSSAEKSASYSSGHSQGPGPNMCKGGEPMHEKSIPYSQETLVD
Put plainly: Agonist activity at rat APJ receptor stably expressed in CHO cell membranes in presence of [35S]GTPgammaS by scintillation proximity assay. The format is functional.

Data set [14] can be described thus: Unbound Cmax in rat at 0.5 mg/kg, sc at 15 mins. The settings on record: in vivo, 0.25 h. The format is ADME, organism-based.
Data set [15] can be described thus: Stability in rat plasma assessed as compound remaining at 4 hrs. The format is ADME, cell-free. The conditions noted are these: read-out: Stabilty.
A short description of data set [16]: Terminal half life in rat at 0.1 mg/kg, iv for 30 mins. The format is ADME, organism-based. The settings on record: in vivo, read-out: beta t1/2.
Data set [17] has as its system Rattus norvegicus. Put plainly: Positive […] activity in anesthetized Lewis rat model of myocardial infarction assessed as increase in ejection fraction at 3.7 ug/kg/min, iv administered as infusion for 30 mins. The format is functional, organism-based. The settings on record: dose 3.7 µg/kg/min.

As to `CSCC[C@H](NC(=O)[C@@H]1CCCN1C(=O)CNC(=O)[C@H](CCCCN)NC(=O)[C@H](Cc1cnc[nH]1)NC(=O)[C@H](CO)NC(=O)[C@H](CC(C)C)NC(=O)[C@H](CCCNC(=N)N)NC(=O)[C@@H]1CCCN1C(=O)[C@H](CCCNC(=N)N)NC(=O)[C@@H]1CCC(=O)N1)C(=O)N1CCC[C@H]1C(=O)N[C@@H](Cc1ccccc1)C(=O)O`, the MPE with Rattus norvegicus [1] was 16.4 µM. The Activity in the data set on Rattus norvegicus [2] was found to be 16.6%.

Turning to `CCCCCCCCCCCCC(=O)N[C@@H](CCC(=O)NCCOCCOCC(=O)NCCOCCOCC(=O)N[C@@H](CCC(N)=O)C(=O)N[C@@H](CCCNC(=N)N)C(=O)N1CCC[C@H]1C(=O)N[C@@H](CCCNC(=N)N)C(=O)N[C@@H](CC(C)C)C(=O)N[C@@H](CO)C(=O)N[C@@H](Cc1c[nH]cn1)C(=O)N[C@@H](CCCCN)C(=O)NCC(=O)N1CCC[C@H]1C(=O)N[C@@H](CCSC)C(=O)N1CCC[C@H]1C(=O)N[C@@H](Cc1ccccc1)C(=O)O)C(=O)O`, the results for the Activity with Rattus norvegicus [3] and in the data set on Rattus norvegicus [12] were 6.1% and 22.8%, respectively. The remaining at 4 h in data set [4] is 82%; in [11], over 90%; in [15] it was 51%. Moreover, the “fold change (FC)” value in [5] is listed as 2.7; in [8], 6.3. For the same compound, the entries for the “Cp(f)” value in data set [6], in [7] and in [13] were 12 nM, 29 nM and 3 nM, respectively. For the same compound, in [9], the fraction unbound stood at 0.011. The outcome in the data set with Rattus norvegicus [10] and with Rattus norvegicus [17] was inactive. The pEC50 at Apelin receptor was 8.34. The fCmax in data set [14] is 0.3 nM. Besides, the half-life in [16] came out at 4.3 min.
